Assays:
Type in all cases: functional
[1] = Antimicrobial activity against Parabacteroides distasonis ATCC 8503 by agar dilution method in presence of 5% laked sheep blood
Bacteroides ovatus = experiment: Antimicrobial activity against Bacteroides ovatus ATCC 8483 by agar dilution method in presence of 5% laked sheep blood
Bacteroides uniformis [2] = experiment: Antimicrobial activity against Bacteroides uniformis ATCC 8492 by agar dilution method in presence of 5% laked sheep blood
Campylobacter gracilis = experiment: Antimicrobial activity against Campylobacter gracilis JCM 8538 by agar dilution method in presence of 5% laked sheep blood
[3] = tested on: Sutterella wadsworthensis; experiment: Antimicrobial activity against Sutterella wadsworthensis ATCC 51579 by agar dilution method in presence of 5% laked sheep blood
[4] = tested on: Prevotella melaninogenica; experiment: Antimicrobial activity against Prevotella melaninogenica JCM 6325 by agar dilution method in presence of 5% laked sheep blood; conditions: ATCC 25845
Prevotella denticola = experiment: Antimicrobial activity against Prevotella denticola GAI 5490 by agar dilution method in presence of 5% laked sheep blood
Fusobacterium nucleatum = experiment: Antimicrobial activity against Fusobacterium nucleatum ATCC 25586 by agar dilution method in presence of 5% laked sheep blood
[5] = tested on: Fusobacterium necrophorum; experiment: Antimicrobial activity against Fusobacterium necrophorum ATCC 25286 by agar dilution method in presence of 5% laked sheep blood
[6] = Antimicrobial activity against Veillonella dispar ATCC 17748 by agar dilution method in presence of 5% laked sheep blood
Bacteroides fragilis [7] = experiment: Antimicrobial activity against Bacteroides fragilis by agar dilution method in presence of 5% laked sheep blood
[8] = tested on: Parabacteroides distasonis; experiment: Antimicrobial activity against Parabacteroides distasonis by agar dilution method in presence of 5% laked sheep blood
Bacteroides uniformis [9] = experiment: Antimicrobial activity against Bacteroides uniformis by agar dilution method in presence of 5% laked sheep blood
Phocaeicola vulgatus = experiment: Antimicrobial activity against Bacteroides vulgatus by agar dilution method in presence of 5% laked sheep blood
Bacteroides caccae = experiment: Antimicrobial activity against Bacteroides caccae by agar dilution method in presence of 5% laked sheep blood
Bacteroides stercoris = experiment: Antimicrobial activity against Bacteroides stercoris by agar dilution method in presence of 5% laked sheep blood
Odoribacter splanchnicus = experiment: Antimicrobial activity against Odoribacter splanchnicus by agar dilution method in presence of 5% laked sheep blood
Prevotella intermedia = experiment: Antimicrobial activity against Prevotella intermedia by agar dilution method in presence of 5% laked sheep blood
Prevotella sp. = experiment: Antimicrobial activity against Prevotella sp. by agar dilution method in presence of 5% laked sheep blood
[10] = tested on: Fusobacterium necrophorum; experiment: Antimicrobial activity against Fusobacterium necrophorum by agar dilution method in presence of 5% laked sheep blood
Fusobacterium varium = experiment: Antimicrobial activity against Fusobacterium varium by agar dilution method in presence of 5% laked sheep blood
Fusobacterium sp. = experiment: Antimicrobial activity against Fusobacterium sp. by agar dilution method in presence of 5% laked sheep blood
[11] = tested on: Desulfovibrio desulfuricans; experiment: Antimicrobial activity against Desulfovibrio desulfuricans by agar dilution method in presence of 5% laked sheep blood
Finegoldia magna = experiment: Antimicrobial activity against Finegoldia magna by agar dilution method in presence of 5% laked sheep blood
Parvimonas micra = experiment: Antimicrobial activity against Parvimonas micra by agar dilution method in presence of 5% laked sheep blood
[12] = tested on: Peptostreptococcus anaerobius; experiment: Antimicrobial activity against Peptostreptococcus anaerobius by agar dilution method in presence of 5% laked sheep blood
[13] = tested on: Peptoniphilus asaccharolyticus; experiment: Antimicrobial activity against Peptoniphilus asaccharolyticus by agar dilution method in presence of 5% laked sheep blood
Eggerthella lenta [14] = experiment: Antimicrobial activity against Eggerthella lenta by agar dilution method in presence of 5% laked sheep blood
Eubacterium limosum = experiment: Antimicrobial activity against Eubacterium limosum by agar dilution method in presence of 5% laked sheep blood
Clostridioides difficile [15] = experiment: Antimicrobial activity against Clostridium difficile by agar dilution method in presence of 5% laked sheep blood
Clostridium perfringens [16] = experiment: Antimicrobial activity against Clostridium perfringens by agar dilution method in presence of 5% laked sheep blood
Atopobium parvulum = experiment: Antimicrobial activity against Atopobium parvulum VPI 0546 by agar dilution method in presence of 5% laked sheep blood; conditions: Lancefieldella parvula
[17] = tested on: Staphylococcus saccharolyticus; experiment: Antimicrobial activity against Staphylococcus saccharolyticus ATCC 14953 by agar dilution method in presence of 5% laked sheep blood
[18] = tested on: Streptococcus constellatus; experiment: Antimicrobial activity against Streptococcus constellatus ATCC 27923 by agar dilution method in presence of 5% laked sheep blood
Clostridioides difficile [19] = experiment: Antimicrobial activity against Clostridium difficile GAI 10029 by agar dilution method in presence of 5% laked sheep blood
Clostridium perfringens [20] = experiment: Antimicrobial activity against Clostridium perfringens ATCC 13124 by agar dilution method in presence of 5% laked sheep blood
[21] = tested on: Paeniclostridium sordellii; experiment: Antimicrobial activity against Clostridium sordellii ATCC 9714 by agar dilution method in presence of 5% laked sheep blood; conditions: Paraclostridium sordellii
[22] = Antimicrobial activity against Bifidobacterium adolescentis ATCC 15703 by agar dilution method in presence of 5% laked sheep blood
Bifidobacterium breve = experiment: Antimicrobial activity against Bifidobacterium breve ATCC 15700 by agar dilution method in presence of 5% laked sheep blood
Eggerthella lenta [23] = experiment: Antimicrobial activity against Eggerthella lenta ATCC 25559 by agar dilution method in presence of 5% laked sheep blood
Cutibacterium acnes = experiment: Antimicrobial activity against Propionibacterium acnes ATCC 11828 by agar dilution method in presence of 5% laked sheep blood
[24] = tested on: Lactiplantibacillus plantarum; experiment: Antimicrobial activity against Lactobacillus plantarum JCM 1149 by agar dilution method in presence of 5% laked sheep blood
[25] = tested on: Limosilactobacillus reuteri; experiment: Antimicrobial activity against Lactobacillus reuteri JCM 1112 by agar dilution method in presence of 5% laked sheep blood
Bacteroides fragilis [26] = experiment: Antimicrobial activity against Bacteroides fragilis GAI 5562 by agar dilution method in presence of 5% laked sheep blood
Bacteroides fragilis [27] = experiment: Antimicrobial activity against Bacteroides fragilis GAI 10150 by agar dilution method in presence of 5% laked sheep blood

In the case of `CC(=N)N1CC[C@H](SC2=C(C(=O)O)N3C(=O)[C@H]([C@@H](C)O)[C@H]3C2)C1`, the MIC [1] is reported as 1 µg/mL, the MIC (Bacteroides ovatus) is reported as 0.5 µg/mL and the MIC (Bacteroides uniformis [2]) is reported as 0.25 µg/mL. It also gave an MIC (Campylobacter gracilis) of 0.25 µg/mL, an MIC [3] of 0.5 µg/mL and an MIC [4] of 0.06 µg/mL. It also gave an MIC (Prevotella denticola) of 0.06 µg/mL, an MIC (Fusobacterium nucleatum) of 1 µg/mL and an MIC [5] of 0.125 µg/mL. For the same compound, the MIC [6] was 0.06 µg/mL, the MIC50 (Bacteroides fragilis [7]) was 0.25 µg/mL and the MIC90 (Bacteroides fragilis [7]) was 8 µg/mL. It also gave an MIC50 [8] of 1 µg/mL, an MIC90 [8] of 4 µg/mL and an MIC50 (Bacteroides uniformis [9]) of 1 µg/mL. For the same compound, the MIC90 (Bacteroides uniformis [9]) was 4 µg/mL, the MIC50 (Phocaeicola vulgatus) was 1 µg/mL and the MIC90 (Phocaeicola vulgatus) was 4 µg/mL. For the same compound, the MIC50 (Bacteroides caccae) was 1 µg/mL, the MIC90 (Bacteroides caccae) was 4 µg/mL and the MIC50 (Bacteroides stercoris) was 1 µg/mL. It also gave an MIC90 (Bacteroides stercoris) of 4 µg/mL, an MIC50 (Odoribacter splanchnicus) of 1 µg/mL and an MIC90 (Odoribacter splanchnicus) of 4 µg/mL. The MIC50 (Prevotella intermedia) was 0.06 µg/mL, the MIC90 (Prevotella intermedia) was 0.25 µg/mL and the MIC50 (Prevotella sp.) was 0.125 µg/mL. The MIC90 (Prevotella sp.) was 0.25 µg/mL, the MIC50 [10] was 0.125 µg/mL and the MIC90 [10] was 2 µg/mL. The MIC50 (Fusobacterium varium) was 0.125 µg/mL, the MIC90 (Fusobacterium varium) was 2 µg/mL and the MIC50 (Fusobacterium sp.) was 0.125 µg/mL. It also gave an MIC90 (Fusobacterium sp.) of 2 µg/mL, an MIC50 [11] of 0.5 µg/mL and an MIC90 [11] of 1 µg/mL. The MIC50 (Finegoldia magna) was 0.25 µg/mL, the MIC90 (Finegoldia magna) was 0.5 µg/mL and the MIC50 (Parvimonas micra) was 0.125 µg/mL. It also gave an MIC90 (Parvimonas micra) of 0.125 µg/mL, an MIC50 [12] of 0.125 µg/mL and an MIC90 [12] of 1 µg/mL. It also gave an MIC50 [13] of 0.03 µg/mL, an MIC90 [13] of 0.06 µg/mL and an MIC50 (Eggerthella lenta [14]) of 1 µg/mL. It also gave an MIC90 (Eggerthella lenta [14]) of 2 µg/mL, an MIC50 (Eubacterium limosum) of 1 µg/mL and an MIC90 (Eubacterium limosum) of 2 µg/mL. It also gave an MIC50 (Clostridioides difficile [15]) of 4 µg/mL, an MIC90 (Clostridioides difficile [15]) of 8 µg/mL and an MIC50 (Clostridium perfringens [16]) of 0.03 µg/mL. It also gave an MIC90 (Clostridium perfringens [16]) of 0.06 µg/mL, an MIC (Atopobium parvulum) of 0.25 µg/mL and an MIC [17] of 0.03 µg/mL. It also gave an MIC [18] of 0.25 µg/mL, an MIC (Clostridioides difficile [19]) of 4 µg/mL and an MIC (Clostridium perfringens [20]) of 0.03 µg/mL. For the same compound, the MIC [21] was 0.03 µg/mL, the MIC [22] was 0.125 µg/mL and the MIC (Bifidobacterium breve) was 0.5 µg/mL. The MIC (Eggerthella lenta [23]) was 2 µg/mL, the MIC (Cutibacterium acnes) was 0.125 µg/mL and the MIC [24] was 0.03 µg/mL. The MIC [25] was 0.03 µg/mL, the MIC (Bacteroides fragilis [26]) was 0.25 µg/mL and the MIC (Bacteroides fragilis [27]) was 8 µg/mL.

For `C[C@@H](O)[C@H]1C(=O)N2C(C(=O)O)=C(S[C@@H]3CN[C@H](CNS(N)(=O)=O)C3)[C@H](C)[C@H]12` [DORIPENEM], the MIC [1] was 0.5 µg/mL, the MIC (Bacteroides ovatus) was 0.5 µg/mL and the MIC (Bacteroides uniformis [2]) was 0.25 µg/mL. It also gave an MIC (Campylobacter gracilis) of 0.125 µg/mL, an MIC [3] of 0.25 µg/mL and an MIC [4] of 0.125 µg/mL. For the same compound, the MIC (Prevotella denticola) was 0.06 µg/mL, the MIC (Fusobacterium nucleatum) was 4 µg/mL and the MIC [5] was no more than 0.015 µg/mL. The MIC [6] was 0.06 µg/mL, the MIC50 (Bacteroides fragilis [7]) was 0.25 µg/mL and the MIC90 (Bacteroides fragilis [7]) was 0.5 µg/mL. The MIC50 [8] was 0.5 µg/mL, the MIC90 [8] was 4 µg/mL and the MIC50 (Bacteroides uniformis [9]) was 0.5 µg/mL. The MIC90 (Bacteroides uniformis [9]) was 4 µg/mL, the MIC50 (Phocaeicola vulgatus) was 0.5 µg/mL and the MIC90 (Phocaeicola vulgatus) was 4 µg/mL. For the same compound, the MIC50 (Bacteroides caccae) was 0.5 µg/mL, the MIC90 (Bacteroides caccae) was 4 µg/mL and the MIC50 (Bacteroides stercoris) was 0.5 µg/mL. It also gave an MIC90 (Bacteroides stercoris) of 4 µg/mL, an MIC50 (Odoribacter splanchnicus) of 0.5 µg/mL and an MIC90 (Odoribacter splanchnicus) of 4 µg/mL. It also gave an MIC50 (Prevotella intermedia) of 0.06 µg/mL, an MIC90 (Prevotella intermedia) of 0.125 µg/mL and an MIC50 (Prevotella sp.) of 0.06 µg/mL. It also gave an MIC90 (Prevotella sp.) of 0.125 µg/mL, an MIC50 [10] of 0.03 µg/mL and an MIC90 [10] of 0.25 µg/mL. The MIC50 (Fusobacterium varium) was 0.03 µg/mL, the MIC90 (Fusobacterium varium) was 0.25 µg/mL and the MIC50 (Fusobacterium sp.) was 0.03 µg/mL. The MIC90 (Fusobacterium sp.) was 0.25 µg/mL, the MIC50 [11] was 0.125 µg/mL and the MIC90 [11] was 0.25 µg/mL. It also gave an MIC50 (Finegoldia magna) of 0.125 µg/mL, an MIC90 (Finegoldia magna) of 0.25 µg/mL and an MIC50 (Parvimonas micra) of 0.06 µg/mL. For the same compound, the MIC90 (Parvimonas micra) was 0.125 µg/mL, the MIC50 [12] was 0.25 µg/mL and the MIC90 [12] was 2 µg/mL. It also gave an MIC50 [13] of no more than 0.015 µg/mL, an MIC90 [13] of 0.125 µg/mL and an MIC50 (Eggerthella lenta [14]) of 0.25 µg/mL. It also gave an MIC90 (Eggerthella lenta [14]) of 0.25 µg/mL, an MIC50 (Eubacterium limosum) of 0.25 µg/mL and an MIC90 (Eubacterium limosum) of 0.25 µg/mL. It also gave an MIC50 (Clostridioides difficile [15]) of 2 µg/mL, an MIC90 (Clostridioides difficile [15]) of 4 µg/mL and an MIC50 (Clostridium perfringens [16]) of 0.03 µg/mL. For the same compound, the MIC90 (Clostridium perfringens [16]) was 0.06 µg/mL, the MIC (Atopobium parvulum) was 1 µg/mL and the MIC [17] was 0.06 µg/mL. For the same compound, the MIC [18] was 0.5 µg/mL, the MIC (Clostridioides difficile [19]) was 4 µg/mL and the MIC (Clostridium perfringens [20]) was 0.03 µg/mL. For the same compound, the MIC [21] was no more than 0.015 µg/mL, the MIC [22] was 0.25 µg/mL and the MIC (Bifidobacterium breve) was 1 µg/mL. It also gave an MIC (Eggerthella lenta [23]) of 0.25 µg/mL, an MIC (Cutibacterium acnes) of 1 µg/mL and an MIC [24] of 0.125 µg/mL. It also gave an MIC [25] of 0.125 µg/mL, an MIC (Bacteroides fragilis [26]) of 0.5 µg/mL and an MIC (Bacteroides fragilis [27]) of 2 µg/mL.

From ChEMBL document CHEMBL1275576, “In vitro activity of tomopenem (CS-023/RO4908463) against anaerobic bacteria” (Antimicrob Agents Chemother, 2009)
